From patent publication US10179355B2, “Bioremediation enhancing agents and methods of use” (JRW BIOREMEDIATION, LLC, priority 2007, dated 2019)

How the values were obtained:
[1] = system: dechlorinating bacteria known to convert PCE to ethene; assay: Set D: Lactic Acid Solids, PCE dechlorination microcosms (kinetics, Relative Rate); type: cell-based, Dehalococcoides and Dehalobacter spp.
Excerpt: Certain contaminated materials (or sites) may contain indigenous microbial communities that are sufficient for complete bioremediation of contaminants. For such sites, there is no need to add microbes unless the indigenous microbes are genetically deficient in achieving the desired clean-up goals. For those sites that are microbiologically limited, microorganisms may be added to the contaminated materials (or sites). In one embodiment, the inoculum may be a mixed culture of halo-respiring bacteria that have been enriched to reach an optimal cell density. These mixed cultures of halo-respiring bacteria may be typically obtained from sediment samples from rivers, streams or any waterways. More specifically, the inoculum used in the Examples was originated from a Sangamon River sediment sample (Lodge Park, Piatt County, Ill.) See, e.g., Brennan, R. A., Sanford, R. A. and […]. (2006). “Biodegradation of Tetrachloroethene by Chitin Fermentation Products in a Continuous Flow Column System.” Journal of Environ. Engr., June 665-673. […] Brennan, R. A., and Sanford, R. A. (2002). “Continuous steady-state method using Tenax for delivering tetrachloroethene to chlororespiring bacteria.” Appl. Environ. […] Using 16S rRNA gene-specific primers, both Dehalococcoides and Dehalobacter spp. were detected. […] For purpose of this disclosure, each bottle may be started with a certain amount of PCE. At subsequent times each bottle may be sampled for the degradation daughter products of PCE, namely trichloroethene (TCE), cis-dichloroethene (DCE), vinyl chloride (VC) and ethene, etc. […] The rate of degradation may be determined by calculating the number of pmoles of chloride ions removed from PCE and subsequently from the amounts of the daughter products generated. The calculation may be performed as follows: […] Next, the dechlorination rate may be determined for each bottle at each time by dividing the Chloride generated by the time (days). […] This ratio is called Relative Rate and is dimensionless. As shown in the Examples, a paired t-test has been conducted to calculate the probability that the Relative Rate of one group (i.e. with Nutrient) is greater than the other group (i.e. without Nutrient). The null hypothesis is that the underlying means of the two paired groups are equal. The Probability that one group has higher Relative Rates than the other group is shown in various tables in the Examples. […] Lactic Acid Solids is a mixture of lactic acid, oligimers of lactic acid and residual sugars. […] In addition, this set was used to characterize if and to what extent the Lactic Acid Solids was an efficacious electron donor for anaerobic bioremediation of contaminants in water.

[2] = system: dechlorinating bacteria known to convert PCE to ethene; assay: Set D: Efficiency by COD Analysis; type: cell-based, Dehalococcoides and Dehalobacter spp.
Excerpt: Efficiency may be defined as the percent of electron donor utilized for dechlorination, and may be calculated by dividing the pmoles of Chloride ion generated by the pmoles of electron donor consumed as measured by either Volatile Fatty Acid (VFA) analysis (Sets B, C, and G) or Chemical Oxygen Demand (COD) analysis (Set D and E). The Relative Efficiency of the electron donor utilization may be defined as the Efficiency of the Electron Donor divided by the Efficiency of the Lactate Control.
The COD analysis calculates the utilization of electron donor by measuring the starting COD and the final COD taking the difference and converting mg/L to pmoles of electrons. The pmoles of electrons used for dechlorination was determined from the calculated Chloride produced leading to an Efficiency and Relative Efficiency of electron donor utilization as compared to lactate.

CC(O)C(=O)[O-].[Na+] (stereo not shown) [Lactate Control, sodium lactate]
Cl^− Rate ± s.d. ([1]; 0 days): 0.00 ± 0.00 µmol | Cl^− ± s.d. ([1]; 0 days): 0.00 ± 0.00 µmol | DCE ± s.d. ([1]; 0 days): 0.00 ± 0.00 µmol | Ethene ± s.d. ([1]; 0 days): 0.00 ± 0.00 µmol | PCE ± s.d. ([1]; 0 days): 19.54 ± 0.00 µmol | TCE ± s.d. ([1]; 0 days): 0.00 ± 0.00 µmol | VC ± s.d. ([1]; 0 days): 0.00 ± 0.00 µmol | Cl^− Rate ± s.d. ([1]; 22 days): 2.64 ± 0.00 µmol | Cl^− ± s.d. ([1]; 22 days): 58.02 ± 0.10 µmol | DCE ± s.d. ([1]; 22 days): 10.02 ± 0.06 µmol | Ethene ± s.d. ([1]; 22 days): 0.25 ± 0.07 µmol | PCE ± s.d. ([1]; 22 days): 0.00 ± 0.00 µmol | TCE ± s.d. ([1]; 22 days): 0.00 ± 0.00 µmol | VC ± s.d. ([1]; 22 days): 0.10 ± 0.03 µmol | Cl^− Rate ± s.d. ([1]; 36 days): 1.18 ± 0.01 µmol | Cl^− ± s.d. ([1]; 36 days): 63.68 ± 0.46 µmol | DCE ± s.d. ([1]; 36 days): 7.18 ± 0.26 µmol | Ethene ± s.d. ([1]; 36 days): 0.23 ± 0.19 µmol | PCE ± s.d. ([1]; 36 days): 0.00 ± 0.00 µmol | TCE ± s.d. ([1]; 36 days): 0.01 ± 0.02 µmol | VC ± s.d. ([1]; 36 days): 0.08 ± 0.01 µmol | Cl^− Rate ± s.d. ([1]; 50 days): 1.29 ± 0.06 µmol | Cl^− ± s.d. ([1]; 50 days): 64.63 ± 2.77 µmol | DCE ± s.d. ([1]; 50 days): 4.98 ± 0.67 µmol | Ethene ± s.d. ([1]; 50 days): 0.20 ± 0.09 µmol | PCE ± s.d. ([1]; 50 days): 0.00 ± 0.00 µmol | TCE ± s.d. ([1]; 50 days): 0.00 ± 0.00 µmol | VC ± s.d. ([1]; 50 days): 3.57 ± 1.88 µmol | % of e^− used for dechlor. [2]: 7% | Chloride ([2]; Efficiency by COD Analysis): 64.63 µmol | Relative Efficiency ([2]; relative to Lactate Control): 100%
